Measurements published in US6399782B1, “Benzimidazole inhibitors of fructose 1,6-bisphosphatase” (Metabasis Therapeutics, Inc., priority 1997, dated 2002).

What was measured:
Porcine heart AMPDA = test: Adenosine monophosphate deaminase selectivity assay; type: biochemical; conditions: AMP deaminase vs hlFBPase
Protocol: (§1) To determine the selectivity of compounds towards FBPase, effects of FBPase inhibitors on 5 key AMP binding enzymes were measured using the assays described below:
Adenosine Monophosphate Deaminase: Porcine heart AMPDA was purified essentially as described by Smiley et al. (Smiley, K. L., Jr, Berry, A. J., and Suelter, C. H. (1967) J. Biol. Chem. 242, 2502-2506) through the phosphocellulose step. Inhibition of AMPDA activity was determined at 37° C. in a 0.1 mL assay mixture containing inhibitor, ˜0.005 U AMPDA, 0.1% bovine serum albumin, 10 mM ATP, 250 mM KCl, and 50 mM MOPS at pH 6.5. The concentration of the substrate AMP was varied from 0.125-10.0 mM. Catalysis was initiated by the addition of enzyme to the otherwise complete reaction mixture, and terminated after 5 minutes by injection into an HPLC system. Activities were determined from the amount of IMP formed during 5 minutes.

[1] = target: T1, Glycogen Phosphorylase (rabbit muscle) (Oryctolagus cuniculus, UniProt P00489); test: Glycogen phosphorylase selectivity assay; type: biochemical; conditions: for EC50: Table 3 Selectivity, read-out: Glycogen Phosphorylase (act.); for effect on glycogen phosphorylase: result in words
T1 construct: Enzyme (rabbit muscle) was purchased from Sigma; purchased Sigma; host or cells: rabbit muscle
T1 sequence (P00489 2-843 limits assumed): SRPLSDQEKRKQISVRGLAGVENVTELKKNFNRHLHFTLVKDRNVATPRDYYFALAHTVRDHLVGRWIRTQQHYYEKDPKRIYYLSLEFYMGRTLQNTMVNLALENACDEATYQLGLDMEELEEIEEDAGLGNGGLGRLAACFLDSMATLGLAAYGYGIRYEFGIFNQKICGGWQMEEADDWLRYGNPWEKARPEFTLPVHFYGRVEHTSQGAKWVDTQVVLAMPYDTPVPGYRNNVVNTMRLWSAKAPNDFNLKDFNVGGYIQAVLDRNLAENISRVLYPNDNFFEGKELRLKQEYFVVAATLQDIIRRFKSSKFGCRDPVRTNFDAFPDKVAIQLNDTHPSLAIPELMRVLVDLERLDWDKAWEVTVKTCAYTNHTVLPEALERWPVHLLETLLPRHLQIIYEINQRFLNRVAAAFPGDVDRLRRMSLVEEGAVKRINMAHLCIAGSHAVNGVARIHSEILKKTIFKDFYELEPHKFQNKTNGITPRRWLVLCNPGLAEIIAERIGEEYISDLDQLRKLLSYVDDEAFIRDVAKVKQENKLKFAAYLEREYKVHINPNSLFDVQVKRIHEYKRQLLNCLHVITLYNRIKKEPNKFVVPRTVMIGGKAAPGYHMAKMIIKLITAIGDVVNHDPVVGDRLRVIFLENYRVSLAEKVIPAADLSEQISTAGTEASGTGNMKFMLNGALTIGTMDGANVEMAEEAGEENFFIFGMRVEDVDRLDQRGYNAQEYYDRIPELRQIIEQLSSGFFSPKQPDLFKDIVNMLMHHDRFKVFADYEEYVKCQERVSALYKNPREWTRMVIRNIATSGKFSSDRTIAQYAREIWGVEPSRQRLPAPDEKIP
Protocol: as §1
Glycogen Phosphorylase: Enzyme (rabbit muscle) was purchased from Sigma. Activity was measured at 37° C. in reactions in which the formation of glucose 1-phosphate was coupled to the reduction of NADP via phosphoglucomutase and glucose 6-phosphate dehydrogenase. Assays were performed on 96-well microtitre plates and were read at 340 nm on a Molecular Devices Microplate Reader. Reaction mixtures consisted of 20 mM imidazole, pH 7.4, 20 mM MgCl2, 150 mM potassium acetate, 5 mM potassium phosphate, 1 mM DTT, 1 mg/ml BSA, 0.1 mM NADP, 1 unit/mL phosphoglucomutase, 1 unit/mL glucose 6-phosphate dehydrogenase, 0.5% glycogen. Test compound concentrations ranged from 1 to 500 μM. Reactions were started by the addition of 17 μg enzyme and were monitored for 20 minutes.

[2] = target: T2, Adenylate Kinase (rabbit muscle) (Oryctolagus cuniculus, UniProt P00569); test: Adenylate kinase selectivity assay; type: biochemical; conditions: for IC50: Table 3 Selectivity, read-out: Adenylate Kinase (inh.); for effect on adenylate kinase: result in words
T2 construct: Enzyme (rabbit muscle) was purchase from Sigma; purchased Sigma; host or cells: rabbit muscle
T2 sequence (P00569 1-194): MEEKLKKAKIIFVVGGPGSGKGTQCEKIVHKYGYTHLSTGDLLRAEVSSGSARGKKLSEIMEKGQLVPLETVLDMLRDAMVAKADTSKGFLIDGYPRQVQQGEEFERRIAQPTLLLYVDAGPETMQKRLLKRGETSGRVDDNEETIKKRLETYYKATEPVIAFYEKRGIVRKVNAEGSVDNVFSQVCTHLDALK
Protocol: as §1
Adenylate Kinase: Enzyme (rabbit muscle) was purchase from Sigma. Activity was measured at 37° C. in reaction mixtures (100 μL) containing 100 mM Hepes, pH 7.4, 45 mM MgCl2, 1 mM EGTA, 100 mM KCl, 2 mg/ml BSA, 1 mM AMP and 2 mM ATP. Reactions were started by addition of 4.4 ng enzyme and terminated after 5 minutes by addition of 17 μL perchloric acid. Precipitated protein was removed by centrifugation and the supernatant neutralized by addition of 33 μL 3 M KOH/3 M KH2CO3. The neutralized solution was clarified by centrifugation and filtration and analyzed for ADP content (enzyme activity) by HPLC using a YMC ODS AQ column (25×4.6 cm). A gradient was run from 0.1 M KH2PO4, pH 6, 8 mM tetrabutyl ammonium hydrogen sulfate to 75% acetonitrile. Absorbance was monitored at 254 nm.

rat hepatocytes = test: Inhibition of gluconeogenesis in rat hepatocytes; type: cell-based; conditions: for IC50: Hepatocyte, glucose production from lactate/pyruvate, isolated rat hepatocytes, 1 hour; for inhibition of glucose production in rat hepatocytes (FIG. 4): result in words
In short: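 Hepatocytes from overnight-fasted Sprague-Dawley rats (250-300 g), 75 mg wet weight/mL in Krebs-bicarbonate with 10 mM lactate, 1 mM pyruvate, 1 mg/mL BSA and 1–500 μM compound. Supernatant glucose measured by glucose oxidase.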

half-maximal inhibition of AMP deaminase relative to IC50 for FBPase (Porcine heart AMPDA) [fold] | EC50 [1] [µM] | effect on glycogen phosphorylase [1] | IC50 [2] [µM] | effect on adenylate kinase [2] | activation of glycogen phosphorylase ([1]; concentrations of drug ranging from 5 to […]) | Compound | IC50 (rat hepatocytes) [µM] | inhibition of glucose production in rat hepatocytes (FIG. 4) (rat hepatocytes)
~600 | > 100 | essentially without effect | > 500 | essentially without effect |  | Nc1c(F)ccc2c1nc(-c1ccc(P(=O)(O)O)o1)n2CC1CC1 [Compound 12.61, 4-Amino-5-fluoro-1-cyclopropylmethyl-2-(2-phosphono-5-furanyl)benzimidazole] | 3.3 | inhibit glucose production in vitro in rat hepatocytes
 | > 500 |  |  |  | no activation of the enzyme was observed | CCc1cc(F)c(N)c2nc(-c3ccc(P(=O)(O)O)o3)n(CC(C)C)c12 [Compound 12.64] | 2.5 | 
42 | > 200 | essentially inactive | > 500 | essentially inactive |  | CCn1c(-c2ccc(P(=O)(O)O)o2)nc2c(N)cccc21 [Compound 12.1, 4-Amino-1-ethyl-2-[2-(5-phosphono)furanyl]benzimidazole] | 110 | inhibit glucose production in vitro in rat hepatocytes
